EC50 data for 18 compounds are collected here from patent publication US20230062119A1, “USE OF BIOMARKERS IN IDENTIFYING PATIENTS THAT WILL BE RESPONSIVE TO TREATMENT WITH A PRMT5 INHIBITOR” (Merck Sharp & Dohme LLC, priority 2019, published 2023).

Read-outs that look alike come from different tables or passages of the source.

For the test, the target named is T1, Full-length (FL)-PRMT5-MEP50 enzyme complex (Homo sapiens, UniProt O14744).
T1 construct: Full-length (FL)-PRMT5-MEP50 enzyme complex (recombinant proteins from baculovirus-transfected Sf21 cells: FL-PRMT5; MW=73837 kDa and FL-MEP50; MW=38614); made in house; host or cells: baculovirus-transfected Sf21 insect cells
As to the kind of experiment: PRMT5-MEP50 Enzyme Methylation Assay. It counts as biochemical. To be noted: 1.0 nM PRMT5-MEP50, 75 nM biotinylated peptide, 15 μM SAM. The protocol:
PRMT5-MEP50 biochemical assay is a direct measurement of the methylation activity of the enzyme complex on a short peptide substrate derived from the N-terminus of H4 histone. Methylation experiment is performed with recombinant PRMT5-MEP50 protein complex. The assessment of inhibitory effect of small molecules is measured by the effectiveness of the compounds to inhibit this reaction (EC50).
In this assay, the potency (EC50) of each compound was determined from a twenty-point (1:2 serial dilution; top compound concentration of 100000 nM) titration curve using the following outlined procedure. To each well of a white ProxiPlus 384 well-plate, 100 nL of compound (1% DMSO in final assay volume of 10 μL) was dispensed, followed by the addition of 8 μL of 1× assay buffer (50 mM Bicine pH 8.0, 1 mM DTT, 0.004% Tween20, 0.01% BSA) containing 1.25 nM of Full-length (FL)-PRMT5-MEP50 enzyme complex (recombinant proteins from baculovirus-transfected Sf21 cells: FL-PRMT5; MW=[…] and FL-MEP50; MW=38614) and 1 μL of 150 μM S-(5′-Adenosyl)-L-Methionine Chloride (SAM). Plates were sealed and placed in a 37° C. humidified chamber for a 60 minutes pre-incubation with compound. Subsequently, each reaction was initiated by the addition of 1 μL 1× assay buffer containing 750 nM biotinylated H4R3(Mel) peptide. The final reaction in each well of 10 μL consists of 1.0 nM PRMT5-MEP50, 75 nM biotinylated-peptide, and 15 μM SAM. Methylation reactions proceeded for 150 minutes in a sealed plate at 37° C. Reactions were immediately quenched by the addition of 1 μL of 5% formic acid. Plates were then frozen and shipped to SAMDI™ Tech Inc. to determine the percent conversion from H4R3(Mel) to H4R3(Me2). Dose-response curves were generated by plotting percent effect (% product conversion; Y-axis) vs. Log 10 compound concentrations (X-axis). EC50 values were determined by non-linear regression according to models for either sigmoidal (4 parameters) or biphasic (7 parameters) dose-response curves.

[1] abbreviates: one EC50: 4 parameters single site sigmoidal model, EC50 1: first value of 7 parameters biphasic model, read-out: Enzyme Methylation Assay (EC50 or EC50 1).
[2] abbreviates: second EC50 of 7 parameters biphasic model, read-out: Enzyme Methylation Assay (EC50 2).

T1 sequence (O14744 whole entry): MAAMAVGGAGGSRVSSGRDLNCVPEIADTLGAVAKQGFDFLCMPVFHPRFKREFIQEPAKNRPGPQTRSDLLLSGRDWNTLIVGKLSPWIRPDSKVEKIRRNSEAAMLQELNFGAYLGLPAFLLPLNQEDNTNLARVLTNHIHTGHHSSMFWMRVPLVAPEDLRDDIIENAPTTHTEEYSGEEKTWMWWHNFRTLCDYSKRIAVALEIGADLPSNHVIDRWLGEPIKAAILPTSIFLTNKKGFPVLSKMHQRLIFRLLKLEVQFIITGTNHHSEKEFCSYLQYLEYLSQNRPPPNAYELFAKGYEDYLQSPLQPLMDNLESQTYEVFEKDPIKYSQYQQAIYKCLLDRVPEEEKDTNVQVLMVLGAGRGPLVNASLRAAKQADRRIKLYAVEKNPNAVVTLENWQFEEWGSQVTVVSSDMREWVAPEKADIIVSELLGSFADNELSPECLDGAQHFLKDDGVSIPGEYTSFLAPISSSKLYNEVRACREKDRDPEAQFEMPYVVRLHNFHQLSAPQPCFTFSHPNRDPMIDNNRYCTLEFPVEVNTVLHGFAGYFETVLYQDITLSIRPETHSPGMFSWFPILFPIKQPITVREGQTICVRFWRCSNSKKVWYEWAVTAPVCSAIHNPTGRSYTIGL
T1 sequence (Q9BQA1 whole entry partner): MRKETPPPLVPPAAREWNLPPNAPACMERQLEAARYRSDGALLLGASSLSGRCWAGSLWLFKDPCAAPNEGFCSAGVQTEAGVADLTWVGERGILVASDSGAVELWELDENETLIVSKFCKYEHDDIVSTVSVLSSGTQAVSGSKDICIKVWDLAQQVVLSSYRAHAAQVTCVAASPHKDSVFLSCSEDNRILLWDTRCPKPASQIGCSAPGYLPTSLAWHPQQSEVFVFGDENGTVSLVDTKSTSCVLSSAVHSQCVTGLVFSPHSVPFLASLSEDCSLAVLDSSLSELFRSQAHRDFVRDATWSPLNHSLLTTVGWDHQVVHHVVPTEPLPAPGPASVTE

Consider `C[C@@]1(O)[C@@H](COc2ccc3cc(Br)c(N)nc3c2)C[C@@H](n2ccc3c(Cl)ncnc32)[C@@H]1O` [Example 1, (1R,2S,3R,5R)-5-(((2-amino-3-bromoquinolin-7-yl)oxy)methyl)-3-(4-chloro-7H-pyrrolo[2,3-d]pyrimidin-7-yl)-1-methylcyclopentane-1,2-diol], for which the EC50 was found to be 0.5 nM under setting [1] and 56 nM under setting [2]. As for `C[C@@]1(O)[C@@H](COc2ccc3cc(Br)c(N)nc3c2)C[C@@H](n2ccc3c(N)ncnc32)[C@@H]1O` [Example 2, (1R,2S,3R,5R)-5-(((2-amino-3-bromoquinolin-7-yl)oxy)methyl)-3-(4-amino-7H-pyrrolo[2,3-d]pyrimidin-7-yl)-1-methylcyclopentane-1,2-diol], the EC50 under setting [1] is 0.5 nM. Turning to `C#C[C@@]1(O)[C@@H](COc2ccc3cc(Br)c(N)nc3c2)O[C@@H](n2ccc3c(N)ncnc32)[C@@H]1O` [Example 3, (2R,3S,4R,5R)-2-(((2-amino-3-bromoquinolin-7-yl)oxy)methyl)-5-(4-amino-7H-pyrrolo[2,3-d]pyrimidin-7-yl)-3-ethynyltetrahydrofuran-3,4-diol], the EC50 under setting [1] was 0.8 nM and the half-maximal effective concentration (EC50) under setting [2] was 193 nM. The corresponding values for `C[C@]1(CCc2ccc3cc(Br)c(N)nc3c2)O[C@@H](n2ccc3c(N)ncnc32)[C@H](O)[C@]1(C)O` [Example 4, (2R,3S,4R,5R)-2-(2-(2-amino-3-bromoquinolin-7-yl)ethyl)-5-(4-amino-7H-pyrrolo[2,3-d]pyrimidin-7-yl)-2,3-dimethyltetrahydrofuran-3,4-diol] are 2.4 nM and 288 nM. `Nc1nc2cc(O[C@H]3CC[C@@]4(O)[C@@H]3O[C@@H](n3ccc5c(Cl)ncnc53)[C@@H]4O)ccc2cc1Br` [Example 5, (2R,3R,3aS,6S,6aR)-6-((2-amino-3-bromoquinolin-7-yl)oxy)-2-(4-chloro-7H-pyrrolo[2,3-d]pyrimidin-7-yl)hexahydro-2H-cyclopenta[b]furan-3,3a-diol]: under setting [1], the EC50 is 0.8 nM. Same read-out and setting: in the case of `Nc1nc2cc(O[C@H]3CC[C@@]4(O)[C@@H]3O[C@@H](n3ccc5c(N)ncnc53)[C@@H]4O)ccc2cc1Br` [Example 6, (2R,3R,3aS,6S,6aR)-6-((2-amino-3-bromoquinolin-7-yl)oxy)-2-(4-amino-7H-pyrrolo[2,3-d]pyrimidin-7-yl)hexahydro-2H-cyclopenta[b]furan-3,3a-diol] it was 0.6 nM; in that of `Cc1ncnc2c1ccn2[C@@H]1O[C@@H]2[C@@H](Oc3ccc4cc(Br)c(N)nc4c3)CC[C@]2(O)[C@H]1O` [Example 7, (2R,3R,3aS,6S,6aR)-6-((2-amino-3-bromoquinolin-7-yl)oxy)-2-(4-methyl-7H-pyrrolo[2,3-d]pyrimidin-7-yl)hexahydro-2H-cyclopenta[b]furan-3,3a-diol], 0.7 nM. On the same count and under the same terms, in the case of `Cc1ncnc2c1ccn2[C@@H]1O[C@@H]2[C@H](Cc3ccc4cc(Br)c(N)nc4c3)CC[C@]2(O)[C@H]1O` [Example 8, (2R,3R,3aS,6S,6aR)-6-((2-amino-3-bromoquinolin-7-yl)methyl)-2-(4-methyl-7H-pyrrolo[2,3-d]pyrimidin-7-yl)hexahydro-2H-cyclopenta[b]furan-3,3a-diol] it was 0.5 nM; in that of `Nc1nc2cc(C[C@@H]3CC[C@@]4(O)[C@@H]3O[C@@H](n3ccc5c(N)ncnc53)[C@@H]4O)ccc2cc1Br` [Example 9, (2R,3R,3aS,6S,6aR)-6-((2-amino-3-bromoquinolin-7-yl)methyl)-2-(4-amino-7H-pyrrolo[2,3-d]pyrimidin-7-yl)hexahydro-2H-cyclopenta[b]furan-3,3a-diol], 0.3 nM.

Turning to `C[C@@]1(O)[C@@H](COc2ccc3cc(Br)c(N)nc3c2)O[C@@H](n2ccc3c(N)ncnc32)[C@@H]1O` [Example 10, (2R,3S,4R,5R)-2-(((2-amino-3-bromoquinolin-7-yl)oxy)methyl)-5-(4-amino-7H-pyrrolo[2,3-d]pyrimidin-7-yl)-3-methyltetrahydrofuran-3,4-diol], the EC50 is, setting by setting: under setting [1], 0.5 nM; under setting [2], 22 nM. As for `C[C@@]1(O)[C@@H](COc2ccc3cc(Br)c(N)nc3c2)O[C@@H](n2ccc3c(Cl)ncnc32)[C@@H]1O` [Example 11, (2R,3S,4R,5R)-2-{[(2-amino-3-bromoquinolin-7-yl)oxy]methyl}-5-(4-chloro-7H-pyrrolo[2,3-d]pyrimidin-7-yl)-3-methyltetrahydrofuran-3,4-diol], the EC50 turned out to be 0.9 nM under setting [1] and 501 nM under setting [2]. As for `COc1ncnc2c1ccn2[C@@H]1O[C@](C)(COc2ccc3cc(Br)c(N)nc3c2)[C@@H](O)[C@H]1O` [Example 12, (2R,3S,4R,5R)-2-(((2-amino-3-bromoquinolin-7-yl)oxy)methyl)-5-(4-methoxy-7H-pyrrolo[2,3-d]pyrimidin-7-yl)-2-methyltetrahydrofuran-3,4-diol], the EC50 under setting [1] turned out to be 33 nM and the EC50 under setting [2] stood at 20900 nM. Regarding `C[C@]1(COc2ccc3cc(Br)c(N)nc3c2)O[C@@H](n2ccc3c(N)ncnc32)[C@H](O)[C@@H]1O` [Example 13, (2R,3S,4R,5R)-2-(((2-amino-3-bromoquinolin-7-yl)oxy)methyl)-5-(4-amino-7H-pyrrolo[2,3-d]pyrimidin-7-yl)-2-methyltetrahydrofuran-3,4-diol], the EC50 is, setting by setting: under setting [1], 0.5 nM; under setting [2], 89 nM. For the compound `C[C@@]1(O)[C@@H](CCc2ccc3cc(Br)c(N)nc3c2)O[C@@H](n2ccc3c(N)ncnc32)[C@@H]1O` [Example 14, (2R,3S,4R,5R)-2-(2-(2-amino-3-bromoquinolin-7-yl)ethyl)-5-(4-amino-7H-pyrrolo[2,3-d]pyrimidin-7-yl)-3-methyltetrahydrofuran-3,4-diol], the EC50 under setting [1] amounted to 1.3 nM and the EC50 under setting [2] turned out to be 182 nM.

On to `C[C@]1(CCc2ccc3cc(Br)c(N)nc3c2)C[C@@H](n2ccc3c(N)ncnc32)[C@H](O)[C@@H]1O` [Example 15, (1S,2R,3S,5R)-3-[2-(2-amino-3-bromo-7-quinolinyl)ethyl]-5-(4-amino-7H-pyrrolo[2,3-d]pyrimidin-7-yl)-3-methyl-1,2-cyclopentanediol], for which the EC50 under setting [1] was 0.8 nM. On the same count and under the same terms, as for `Cc1ncnc2c1ccn2[C@@H]1C[C@@H]2[C@H](Cc3ccc4cc(F)c(N)nc4c3)CC[C@]2(O)[C@H]1O` [Example 16, (1S,2R,3aR,4S,6aR)-4-((2-amino-3-fluoroquinolin-7-yl)methyl)-2-(4-methyl-7H-pyrrolo[2,3-d]pyrimidin-7-yl)hexahydropentalene-1,6a(1H)-diol], the figure is 0.4 nM. Still for that read-out and setting: as for `Cc1ncnc2c1ccn2[C@@H]1C[C@@H]2[C@H](Cc3ccc4cc(Cl)c(N)nc4c3)CC[C@]2(O)[C@H]1O` [Example 17, (1S,2R,3aR,4S,6aR)-4-((2-amino-3-chloroquinolin-7-yl)methyl)-2-(4-methyl-7H-pyrrolo[2,3-d]pyrimidin-7-yl)hexahydropentalene-1,6a(1H)-diol], the figure is 0.3 nM. `Cc1ncnc2c1ccn2[C@@H]1C[C@@H]2[C@@H](Cc3ccc4cc(F)c(N)nc4c3)CC[C@]2(O)[C@H]1O` [Example 18, (1S,2R,3aR,4R,6aR)-4-((2-amino-3-fluoroquinolin-7-yl)methyl)-2-(4-methyl-7H-pyrrolo[2,3-d]pyrimidin-7-yl)hexahydropentalene-1,6a(1H)-diol]: the EC50 reads like this: under setting [1], 0.4 nM; under setting [2], 229 nM.
